# In patent US20080300235A1, “FXR Agonists for Reducing LOX-1 Expression” (Wyeth, priority 2007, published 2008):
# How the values were obtained:
# [1] = system: CD36; assay: Expression of oxLDL hepatic scavenger receptor CD36 (FIG. 3); type: in vivo, mouse; conditions: specificity control
# From the text: (§1) Since LOX-1 is regulated by oxLDL, LOX-1 mRNA expression was monitored in liver from LDLR−/− (LDLRKO) mice fed a western diet for 7 days.
# Importantly, the regulation of LOX-1 by FXR was specific, since expression of another oxLDL hepatic scavenger receptor, CD36, was not affected by compound A (FIG. 3).
# [2] = system: VCAM-1; assay: Expression of LOX-1 target gene VCAM-1 (FIG. 2); type: in vivo, mouse
# [3] = system: soluble LOX-1 (sLOX-1); assay: Serum soluble LOX-1 (sLOX-1) by ELISA based assay in mouse strains; type: in vivo; conditions: FIG. 5B
# From the text: Moreover, the expression of soluble LOX-1 (sLOX-1) in the serum was also monitored using an ELISA based assay after Compound A treatment. […] (FIG. 5B).
# [4] = system: LOX-1; assay: Hepatic LOX-1 mRNA expression in LDLR-/- mice fed a western diet; type: in vivo, mouse; conditions: liver, LDLR-/- (LDLRKO) mice, western diet 7 days, increasing concentrations of compound, FIG. 1
# From the text: as §1
# [5] = system: VCAM-1; assay: Hepatic VCAM-1 gene expression by real-time PCR in FXR KO or wildtype mice; type: in vivo, mouse; conditions: male FXR KO or wildtype mice, chow diet with 0.5% chenodeoxycholic acid (CA), 30 mpk orally daily 7 days, FIG. 6
# Protocol: (§2) Male FXR deficient (FXR KO) or wildtype mice on a chow diet supplemented with 0.5% chenodeoxycholic acid (CA) were treated orally daily with 30 mpk of Compound A for 7 days, and hepatic gene expression of LOX-1 and VCAM-1 was determined by real-time PCR.
# [6] = system: LOX-1; assay: Hepatic LOX-1 gene expression by real-time PCR in FXR KO or wildtype mice; type: in vivo, mouse; conditions: male FXR KO or wildtype mice, chow diet with 0.5% chenodeoxycholic acid (CA), 30 mpk orally daily 7 days, FIG. 6
# Protocol: as §2
# [7] = system: LOX-1; assay: LOX-1 expression in liver and kidney of diabetic KKAy mice; type: in vivo, mouse
# Protocol: To determine whether FXR agonists could block LOX-1 gene expression under other settings, the regulation of LOX-1 by FXR was studied in the diabetic mouse strain, KKAy. […] The renal regulation of LOX-1 was also determined since FXR is also expressed in the kidney.
compound,measurement,setting,value
"CC(C)OC(=O)C1=CN(C(=O)c2ccc(F)c(F)c2)CC(C)(C)c2c1[nH]c1ccccc21 [Compound A, isopropyl 3-(3,4-difluorobenzoyl)-1,1-dimethyl-1,2,3,6-tetrahydroazepino[4,5-b]indole-5-carboxylate]",CD36 expression,[1],not affected
same,VCAM-1 (LOX-1 target gene) expression,[2],significantly inhibited
same,sLOX-1 reduction in FXR KO mouse strain,[3]; FXR KO mouse strain,dependent upon FXR
same,serum sLOX-1,"[3]; various mouse strains, high fat diet, 30 mpk orally daily for 7 days",significantly reduced
same,LOX-1 mRNA induction by the western diet,[4],dose dependently inhibited
same,"inhibition of hepatic VCAM-1 gene expression, FXR KO vs wildtype",[5],dependent upon FXR
same,"inhibition of hepatic LOX-1 gene expression, FXR KO vs wildtype",[6],dependent upon FXR
same,hepatic LOX-1 expression,"[7]; chow diet, 7 days treatment, FIG. 4A",significant repression
same,renal LOX-1 expression,"[7]; kidney, FIG. 4B",significantly inhibited
